Results published in US20090312438A1, “Compositions and Methods for Attenuating the Formation of A2E in the Retinal Pigment Epithelium” (priority 2008, published 2009).

How the values were obtained:
[1] = female, Japanese quail (Coturnix japonica), in vivo, 16 weeks
Procedure: Tissues were homogenized and extracted three times with tetrahydrofuran containing 0.1% butylated hydroxytoluene by sonication at 5° C. to 10° C. for 30 minutes each time. The combined organic extracts were evaporated to dryness under vacuum at room temperature. The dried residue was redissolved in one ml of HPLC mobile phase and centrifuged at approximately 2000 g for 10 minutes to remove the minor amounts of insoluble solid particles prior to analysis. The majority of carotenoids in bird retinas are esterified (32), so after the initial extraction, the dried carotenoid residue was redissolved in hexane and subjected to saponification in 1.8% (w/v) methanolic potassium hydroxide (KOH) for two hours at room temperature. After saponification, the samples were washed with water until the samples achieved neutral pH. The vials were centrifuged at approximately 2000 g to remove the minor amounts of insoluble solid particles. The solution was evaporated to dryness on a rotary evaporator under reduced pressure at room temperature and reconstituted in the appropriate HPLC solvents.
HPLC analysis was performed on a Thermo Separations (San Jose, Calif.) HPLC system with binary gradient pumps, a refrigerated autosampler, a UV6000 photodiode-array detector (PDA), and an MSQ single quadrupole mass spectrometer. […]

A2E formation in the RPE = assay: Xanthophyll supplementation in Japanese quail: A2E in RPE/choroid by HPLC-MS; type: in vivo, Japanese quail (Coturnix japonica); conditions: for Rise of A2E levels from baseline levels: 16-week supplementation, P=0.1, unsupplemented control rose more than six-fold; for A2E oxidation products in mass spectra versus control group: A2E extracted from RPE, FIG. 5; for A2E levels in the RPE, control group relative to supplemented groups: FIG. 4, 16 weeks, N=4, P<0.001; for Inhibition of A2E formation relative to birds fed a control diet low in carotenoids: high dose supplementation
Procedure: A2E and its isomers were extracted and isolated from RPE/choroid using a previously described method (8). RPE samples were homogenized in 1:1 CHCl3/MeOH (2 ml) and 0.01 M phosphate-buffered saline (PBS) (1 ml). The homogenizer was washed with 1:1 CHCl3/MeOH (2 ml), 0.01 M PBS (1 ml), and then CHCl3 (2 ml) and CH2Cl2 (2 ml) were added to remove any remaining material. All solutions were combined, and the organic layer was extracted from the aqueous layer. The combined organic extracts were evaporated to dryness under vacuum at room temperature. The residue was dissolved in MeOH for HPLC. The vials were centrifuged at approximately 2000 g to remove the minor amounts of insoluble solid particles prior to analysis.
HPLC analysis was performed on a Thermo Separations (San Jose, Calif.) HPLC system with binary gradient pumps, a refrigerated autosampler, a UV6000 photodiode-array detector (PDA), and an MSQ single quadrupole mass spectrometer. Peak identities were confirmed by PDA and mass spectra and by co-elution with authentic standards as necessary. Calibration was by external standardization curves with authentic standards. […] Typical reproducibility with external standardization in our laboratory is +5%.
A2E HPLC analysis: The dried A2E samples were redissolved in 100 μl of MeOH. A gradient of 84-100% acetonitrile (A) with 0.05% trifluoroacetic acid in H2O (B) over 35 minutes was used to separate A2E at a flow rate of 1.0 ml min^−1 on a reverse-phase C18 column (4.6×250 mm, Phenomenex, Atlanta, Ga.). The column was maintained at room temperature, and the HPLC PDA detector was operated at 440 nm.
MS analysis was performed using a Thermo Separations (San Jose, Calif.) MSQ single quadrupole mass spectrometer, equipped with an electron spray ionization (ESI) source and an atmospheric pressure chemical ionization (APCI) source. A2E and carotenoids were ionized in positive ion ESI and APCI modes, respectively. To avoid overloading of eluted solvent molecules in the mass spectrometer and to optimize ionization conditions, 50% of the eluate was directed to waste with the help of a diverter valve after the PDA detector. The delay time from PDA to MS was 0.13 minutes. […] Selected ion monitoring (SIM) was performed using dwell time of 200 ms for each channel. In SIM mode, the m/z channels 592±3, 608±1.5, 624±1.5, and 640±1.5 were used for A2E and its oxidative products. Typical detection conditions for A2E were: RF lens bias voltage 0.1V, cone voltage 80V and heater temperature 550° C. The ion source and tuning lens parameters were optimized automatically by infusing A2E samples via the injector. For carotenoids, the m/z channels 551±0.7 and 569±0.7 were used for lutein, and 569±0.8 for zeaxanthin. Typical detection conditions were: corona discharge current 5 μA, cone voltage 80V, and probe temperature 500° C.
Adult Japanese quail (Coturnix japonica) were procured from B&D farms (Harrah, Okla.), and all experiments were reviewed and approved by the University of Utah's Institutional Animal Care and Use Committee. The birds were kept under ambient room light on a 12-hour light-dark cycle, and they were divided into three groups of four birds: lutein supplemented, zeaxanthin supplemented, and unsupplemented. All birds were fed daily with a standard turkey diet (˜20 g/day) (Purina Mills, St. Louis, Mo.) that was low in carotenoids (1.10 ng/g). The supplemented birds were gavaged daily with 0.5 ml of a microbial extract rich in lutein or zeaxanthin for 16 weeks (0.2 mg of carotenoid per bird per day). Lutein was prepared from the freshwater alga Chlorella protothecoides CS 41 (Microalgae Supply Service, CSIRO, Hobart Australia) under conditions described earlier (36). Zeaxanthin was obtained from the non-pathogenic bacteria Flavobacterium multivorum ATCC 55238 grown on liquid growth medium as detailed earlier (37). […]

[2] = extensive use in humans as dietary supplements; cited from earlier work

| Structure (SMILES) | Increase of total lutein and zeaxanthin levels (retina) relative to baseline [1] [fold] | Rise of total retinal carotenoid levels relative to baseline [1] [fold] | Rise of A2E levels from baseline levels (A2E formation in the RPE) | A2E oxidation products in mass spectra versus control group (A2E formation in the RPE) | A2E levels in the RPE, control group relative to supplemented groups (A2E formation in the RPE) | Inhibition of A2E formation relative to birds fed a control diet low in carotenoids (A2E formation in the RPE) | Toxicity in humans as dietary supplements [2] |
| --- | --- | --- | --- | --- | --- | --- | --- |
| CC1=C[C@H](O)CC(C)(C)[C@H]1/C=C/C(C)=C/C=C/C(C)=C/C=C/C=C(C)/C=C/C=C(C)/C=C/C1=C(C)C[C@@H](O)CC1(C)C [Lutein, (3R, 3′R, 6′R)-lutein] | 2.8 | 1.6 | barely any rise from baseline levels | control group had higher levels of oxidation products in comparison | significantly higher for the control group | profound inhibition of A2E formation | no toxicity has ever been reported |
| CC1=C(/C=C/C(C)=C/C=C/C(C)=C/C=C/C=C(C)/C=C/C=C(C)/C=C/C2=C(C)C[C@@H](O)CC2(C)C)C(C)(C)C[C@H](O)C1 [Zeaxanthin, (3R, 3′R)-zeaxanthin] |  |  | barely any rise from baseline levels | control group had higher levels of oxidation products in comparison | significantly higher for the control group | profound inhibition of A2E formation | no toxicity has ever been reported |
